Test results as given in US20210179578A1, “OX1 ANTAGONISTS” (Heptares Therapeutics Limited, priority 2017, published 2021).
Where two headings read alike, the source gives them in different places.

What was measured:
human OX2 receptor = biological target: T1, human OX2 receptor (Homo sapiens, UniProt O43614); assay: IPone accumulation assay, CHO cells expressing OX2 (antagonism of orexin A); format: cell-based; settings: CHO human OX2, orexin A EC80 challenge (40 nM), read-out: fpKb average OX2 (converted)
T1 sequence (O43614 1-444): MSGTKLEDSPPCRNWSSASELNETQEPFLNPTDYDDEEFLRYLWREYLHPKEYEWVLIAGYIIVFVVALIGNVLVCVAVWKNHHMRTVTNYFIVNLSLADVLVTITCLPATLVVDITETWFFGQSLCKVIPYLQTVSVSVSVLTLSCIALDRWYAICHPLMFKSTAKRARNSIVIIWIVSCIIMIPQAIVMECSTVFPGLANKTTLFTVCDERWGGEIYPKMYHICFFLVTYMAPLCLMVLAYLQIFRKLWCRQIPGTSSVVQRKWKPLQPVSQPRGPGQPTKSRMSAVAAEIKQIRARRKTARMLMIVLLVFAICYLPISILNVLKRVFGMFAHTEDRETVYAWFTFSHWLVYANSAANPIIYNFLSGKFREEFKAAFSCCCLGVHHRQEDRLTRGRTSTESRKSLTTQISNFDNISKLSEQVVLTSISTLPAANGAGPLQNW
Method: Generation of CHO stable cell lines expressing the human OX1R and OX2R. Stable cell lines for the human OX1R and OX2R receptors were generated through the transfection of CHO cells using the transfection reagent Genejuice (Novagen number 70967) and cDNA coding for either the human OX1R or OX2R. Cells were cultured in Sigma Nutrient Mixture F-12 Ham media (catalog number N6658) supplemented with 10% heat-inactivated FBS. Forty-eight hours after transfection, cells were harvested and placed under geneticin selection by culturing in Sigma Nutrient Mixture F-12 Ham media supplemented with 10% heat-inactivated FBS and geneticin (ThermoFisher Catalog number: 10131035). Selection of the final stable clone for each receptor was made on the basis of receptor expression, assay signal to noise and robustness though increasing passage. Selected clones for the human OX1R and OX2R were then frozen down into liquid nitrogen using Cell Freezing Medium-DMSO (Sigma-Aldrich catalog number: C6164).
(§1) IPone accumulation assay. A CHO cell line stably expressing either human OX1 or OX2 receptor was used with the IPone HTRF assay kit (CisBio: Part #62IPAPEJ) to measure receptor activation. The assay was optimised to measure the ability (potency; fpKb) of antagonists to reduce agonist (orexin A)-induced inositol phosphate turnover. Briefly, cells were plated onto half area 96-well white walled plates at a density of 12,500 cells/well. Sixteen hours post-plating cell growth media was replaced with antagonist concentration-response curve diluted in stimulation buffer (supplied with the kit). Cells were incubated in a humidified incubator (37° C.) for 30 min before an EC80 challenge concentration (˜20 nM (OX1) and 40 nM (OX2)) of orexin A (Tocris catalogue number 1455). After 30 min stimulation in a humidified incubator (37° C.) the assay was terminated by the addition of detection mixture as per manufacturer's instructions. The concentration of compound which reduced orexin-A stimulated turnover of inositol phosphates by 50% (IC50) was calculated by fitting to a four parameter sigmoidal dose response curve. The IC50 values were converted to fpKB values using the orexin A pEC50 value estimated on each plate as well as the challenge concentration interpolated from the orexin A control curve.

human OX1 receptor = biological target: T2, human OX1 receptor (Homo sapiens, UniProt O43613); assay: IPone accumulation assay, CHO cells expressing OX1 (antagonism of orexin A); format: cell-based; settings: CHO human OX1, orexin A EC80 challenge (~20 nM)
T2 sequence (O43613 1-425): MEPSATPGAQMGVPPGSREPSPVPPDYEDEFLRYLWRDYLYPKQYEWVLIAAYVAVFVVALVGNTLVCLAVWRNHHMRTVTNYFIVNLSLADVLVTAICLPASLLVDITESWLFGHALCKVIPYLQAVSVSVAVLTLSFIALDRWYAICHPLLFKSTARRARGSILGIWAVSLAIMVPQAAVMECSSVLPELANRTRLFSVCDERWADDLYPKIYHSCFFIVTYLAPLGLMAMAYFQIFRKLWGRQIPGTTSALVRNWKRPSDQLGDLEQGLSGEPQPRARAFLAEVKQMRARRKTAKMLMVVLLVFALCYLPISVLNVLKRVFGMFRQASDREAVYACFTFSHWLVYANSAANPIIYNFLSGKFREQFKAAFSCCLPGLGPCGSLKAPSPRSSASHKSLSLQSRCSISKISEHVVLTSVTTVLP
Method: as §1, with “Generation of CHO stable cell lines expressing the human OX1R and OX2R. Stable cell lines for the human OX1R and OX2R receptors were generated through the transfection of CHO cells using the transfection reagent Genejuice (Novagen number 70967) and cDNA coding for either the human OX1R or OX2R. Cells were cultured in Sigma Nutrient Mixture F-12 Ham media (catalog number N6658) supplemented with 10% heat-inactivated FBS. Forty-eight hours after transfection, cells were harvested and placed under geneticin selection by culturing in Sigma Nutrient Mixture F-12 Ham media supplemented with 10% heat-inactivated FBS and geneticin (ThermoFisher Catalog number: 10131035). Selection of the final stable clone for each receptor was made on the basis of receptor expression, assay signal to noise and robustness though increasing passage. Selected clones for the human OX1R and OX2R were then frozen down into liquid nitrogen using Cell Freezing Medium-DMSO (Sigma-Aldrich catalog number: C6164). IPone accumulation” for “IPone accumulation”, “(CisBio: Part #62[…]) to measure” for “(CisBio: Part #62IPAPEJ) to measure”, “challenge concentration ( 20 nM (OX1)” for “challenge concentration (˜20 nM (OX1)”

[1] = IPone accumulation, read-out: fpKb average OX1 (converted)

SMILES | Kb (human OX2 receptor) | Kb (human OX1 receptor; [1]) | Kb (human OX1 receptor; fpKb average OX1, IPone accumulation)
CCCc1cc(F)c(CN2C(=O)N(c3ccc(C)c(S(C)(=O)=O)c3)CCc3c(F)cccc32)c(F)c1 [Example 28, 1-(2,6-difluoro-4-propylbenzyl)-6-fluoro-3-[4-methyl-3-(methylsulfonyl)phenyl]-1,3,4,5-tetrahydro-2H-1,3-benzodiazepin-2-one] | > 3980 nM | 79.4 nM | 
CCCc1cc(F)c(CN2C(=O)N(c3cnc(C)c(C(C)(F)F)c3)CCc3c(F)cccc32)c(F)c1 [Example 34, 3-[5-(1,1-difluoroethyl)-6-methylpyridin-3-yl]-1-(2,6-difluoro-4-propylbenzyl)-6-fluoro-1,3,4,5-tetrahydro-2H-1,3-benzodiazepin-2-one] | > 2510 nM | 79.4 nM | 
COc1cc(F)c(CN2C(=O)N(c3cnc(OC)c(S(C)(=O)=O)c3)CCc3c(F)cccc32)c(F)c1F [Example 15, 6-fluoro-3-[6-methoxy-5-(methylsulfonyl)pyridin-3-yl]-1-(2,3,6-trifluoro-4-methoxybenzyl)-1,3,4,5-tetrahydro-2H-1,3-benzodiazepin-2-one] | > 3160 nM | 126 nM | 
Cc1ncc(C2CCc3c(F)cccc3N(Cc3c(F)cc(Br)cc3F)C2=O)cc1C(C)(F)F (single isomer, unassigned) [Example 36, 1-(4-bromo-2,6-difluorobenzyl)-3-[5-(1,1-difluoroethyl)-6-methylpyridin-3-yl]-6-fluoro-1,3,4,5-tetrahydro-2H-1-benzazepin-2-one] | > 2000 nM | 20 nM | 
CSc1cc(N2CCc3c(F)cccc3N(Cc3c(F)cc(Br)cc3F)C2=O)ccc1C [Example 26, 1-(4-bromo-2,6-difluorobenzyl)-6-fluoro-3-[4-methyl-3-(methylsulfanyl)phenyl]-1,3,4,5-tetrahydro-2H-1,3-benzodiazepin-2-one] | > 794 nM |  | 50.1 nM
COCc1cc(F)c(CN2C(=O)N(c3cnc(OC)c(C(C)(F)F)c3)CCc3c(F)cccc32)c(F)c1 [Example 7, 3-[5-(1,1-difluoroethyl)-6-methoxypyridin-3-yl]-1-[2,6-difluoro-4-(methoxymethyl)benzyl]-6-fluoro-1,3,4,5-tetrahydro-2H-1,3-benzodiazepin-2-one] | > 3980 nM | 7.94 nM | 
COc1ncc(C2CCc3c(F)cccc3N(Cc3cc(C#N)ccc3F)C2=O)cc1C(C)(F)F (single isomer, unassigned) [Example 13, 3-({3-[5-(1,1-difluoroethyl)-6-methoxypyridin-3-yl]-6-fluoro-2-oxo-2,3,4,5-tetrahydro-1H-1-benzazepin-1-yl}methyl)-4-fluorobenzonitrile] | > 794 nM | 50.1 nM | 
COc1ncc(C2CCc3c(F)cccc3N(Cc3c(F)cc(Cl)cc3F)C2=O)cc1S(C)(=O)=O (single isomer, unassigned) [Example 22, 1-(4-chloro-2,6-difluorobenzyl)-6-fluoro-3-[6-methoxy-5-(methylsulfonyl)pyridin-3-yl]-1,3,4,5-tetrahydro-2H-1-benzazepin-2-one] | > 1000 nM | 10 nM | 
COc1ncc(N2CCc3c(F)cccc3N(Cc3c(F)cc(Br)cc3F)C2=O)cc1S(C)(=O)=O [Example 14, 1-(4-bromo-2,6-difluorobenzyl)-6-fluoro-3-[6-methoxy-5-(methylsulfonyl)pyridin-3-yl]-1,3,4,5-tetrahydro-2H-1,3-benzodiazepin-2-one] | > 794 nM | 79.4 nM | 
[2H]C([2H])([2H])Oc1ncc(N2CCc3c(F)cccc3N(Cc3c(F)cc(Br)cc3F)C2=O)cc1C(C)(F)F [Example 2, 1-(4-bromo-2,6-difluorobenzyl)-3-{5-(1,1-difluoroethyl)-6-[(^2H3)methyloxy]pyridin-3-yl}-6-fluoro-1,3,4,5-tetrahydro-2H-1,3-benzodiazepin-2-one] | > 3980 nM | 20 nM | 
Cc1ccc(N2CCc3c(F)cccc3N(Cc3c(F)cc(Br)cc3F)C2=O)cc1S(C)(=O)=O [Example 27, 1-(4-bromo-2,6-difluorobenzyl)-6-fluoro-3-[4-methyl-3-(methylsulfonyl)phenyl]-1,3,4,5-tetrahydro-2H-1,3-benzodiazepin-2-one] | > 3160 nM | 126 nM | 
Cc1ccc(N2CCc3c(F)cccc3N(Cc3c(F)cc(Br)cc3F)C2=O)cc1C(C)(F)F [Example 1, 1-(4-bromo-2,6-difluorobenzyl)-3-[3-(1,1-difluoroethyl)-4-methylphenyl]-6-fluoro-1,3,4,5-tetrahydro-2H-1,3-benzodiazepin-2-one] | > 3160 nM | 158 nM | 
Cc1ncc(N2CCc3c(F)cccc3N(Cc3c(F)cc(Br)cc3F)C2=O)cc1OC(F)F [Example 37, 1-(4-bromo-2,6-difluorobenzyl)-3-[5-(difluoromethoxy)-6-methylpyridin-3-yl]-6-fluoro-1,3,4,5-tetrahydro-2H-1,3-benzodiazepin-2-one] | > 3980 nM | 20 nM | 
COc1ncc(N2CCc3c(F)cccc3N(Cc3ccc(Br)cc3F)C2=O)cc1C(C)(F)F [Example 10, 1-(4-bromo-2-fluorobenzyl)-3-[5-(1,1-difluoroethyl)-6-methoxypyridin-3-yl]-6-fluoro-1,3,4,5-tetrahydro-2H-1,3-benzodiazepin-2-one] | > 2510 nM | 25.1 nM | 
Cc1ncc(C2CCc3c(F)cccc3N(Cc3c(F)cc(Br)cc3F)C2=O)cc1C(C)(F)F (single isomer, unassigned) [Example 35, 1-(4-bromo-2,6-difluorobenzyl)-3-[5-(1,1-difluoroethyl)-6-methylpyridin-3-yl]-6-fluoro-1,3,4,5-tetrahydro-2H-1-benzazepin-2-one] | > 2510 nM | 63.1 nM | 
Cc1cc(C)c(S(C)(=O)=O)cc1N1CCc2ccccc2N(Cc2c(F)cc(OC(C)C)cc2F)C1=O [Example 30, 1-[2,6-difluoro-4-(propan-2-yloxy)benzyl]-3-[2,4-dimethyl-5-(methylsulfonyl)phenyl]-1,3,4,5-tetrahydro-2H-1,3-benzodiazepin-2-one] | 794 nM | 39.8 nM | 
